Consider 39 compounds from ChEMBL document CHEMBL5356958, “Discovery of a Highly Potent and Selective MYOF Inhibitor with Improved Water Solubility for the Treatment of Gastric Cancer” (J Med Chem, 2023).

For data set [1], the system named is MGC-803. Briefly: Antiproliferative activity against human MGC-803 cells incubated for 48 hrs by SRB assay. Type of data set: functional, cell-based. The note with it: MGC-803, 48 h. (The SRB assay estimates cell density from bound dye.)
For data set [2], the system named is MKN-45. Nature of the data set: Antiproliferative activity against human MKN-45 cells incubated for 48 hrs by SRB assay. Type of data set: functional, cell-based. The note with it: MKN-45, 48 h.
Data set [3] deals with MKN-45. Nature of the data set: Antitumor activity against human MKN-45 cells xenografted in BALB/c mouse assessed as tumor growth inhibition at 15 mg/kg/day, ip measured every 3 days for 21 days. In kind it is functional. The note with it: MKN-45, 504 h, time 21 day, read-out: TGI.
Data set [4] in a line: Aqueous solubility of compound in PBS at pH 7.4. In kind it is physicochemical.
Data set [5] is described as follows: Aqueous solubility of compound in PBS at pH 9. In kind it is physicochemical.
Data set [6] can be described thus: Aqueous solubility of compound in PBS at pH 2. In kind it is physicochemical.
Data set [7] concerns MKN-45. Nature of the data set: Antitumor activity against human MKN-45 cells xenografted in BALB/c mouse assessed as tumor growth inhibition at 30 mg/kg/day, ip measured every 3 days for 21 days. In kind it is functional. The note with it: MKN-45, 504 h, time 21 day, read-out: TGI. For orientation: Xenograft models place foreign cells or tissue in a host animal.
Data set [8] addresses hERG (KCNH2) (Homo sapiens, UniProt Q12809). Nature of the data set: Inhibition of human ERG at 3 uM relative to control. In kind it is toxicity.
Data set [9] has as its target Myoferlin (Homo sapiens, UniProt Q9NZM1). Nature of the data set: Binding affinity to human MYOF C2D by SPR method. A general note: In SPR one partner is held on a chip, and binding of the other changes the refractive index at the surface.

In brackets after ≈: the same amount, converted by molar mass. Bounds are passed on as bounds.

Chain of Myoferlin (Q9NZM1 whole entry): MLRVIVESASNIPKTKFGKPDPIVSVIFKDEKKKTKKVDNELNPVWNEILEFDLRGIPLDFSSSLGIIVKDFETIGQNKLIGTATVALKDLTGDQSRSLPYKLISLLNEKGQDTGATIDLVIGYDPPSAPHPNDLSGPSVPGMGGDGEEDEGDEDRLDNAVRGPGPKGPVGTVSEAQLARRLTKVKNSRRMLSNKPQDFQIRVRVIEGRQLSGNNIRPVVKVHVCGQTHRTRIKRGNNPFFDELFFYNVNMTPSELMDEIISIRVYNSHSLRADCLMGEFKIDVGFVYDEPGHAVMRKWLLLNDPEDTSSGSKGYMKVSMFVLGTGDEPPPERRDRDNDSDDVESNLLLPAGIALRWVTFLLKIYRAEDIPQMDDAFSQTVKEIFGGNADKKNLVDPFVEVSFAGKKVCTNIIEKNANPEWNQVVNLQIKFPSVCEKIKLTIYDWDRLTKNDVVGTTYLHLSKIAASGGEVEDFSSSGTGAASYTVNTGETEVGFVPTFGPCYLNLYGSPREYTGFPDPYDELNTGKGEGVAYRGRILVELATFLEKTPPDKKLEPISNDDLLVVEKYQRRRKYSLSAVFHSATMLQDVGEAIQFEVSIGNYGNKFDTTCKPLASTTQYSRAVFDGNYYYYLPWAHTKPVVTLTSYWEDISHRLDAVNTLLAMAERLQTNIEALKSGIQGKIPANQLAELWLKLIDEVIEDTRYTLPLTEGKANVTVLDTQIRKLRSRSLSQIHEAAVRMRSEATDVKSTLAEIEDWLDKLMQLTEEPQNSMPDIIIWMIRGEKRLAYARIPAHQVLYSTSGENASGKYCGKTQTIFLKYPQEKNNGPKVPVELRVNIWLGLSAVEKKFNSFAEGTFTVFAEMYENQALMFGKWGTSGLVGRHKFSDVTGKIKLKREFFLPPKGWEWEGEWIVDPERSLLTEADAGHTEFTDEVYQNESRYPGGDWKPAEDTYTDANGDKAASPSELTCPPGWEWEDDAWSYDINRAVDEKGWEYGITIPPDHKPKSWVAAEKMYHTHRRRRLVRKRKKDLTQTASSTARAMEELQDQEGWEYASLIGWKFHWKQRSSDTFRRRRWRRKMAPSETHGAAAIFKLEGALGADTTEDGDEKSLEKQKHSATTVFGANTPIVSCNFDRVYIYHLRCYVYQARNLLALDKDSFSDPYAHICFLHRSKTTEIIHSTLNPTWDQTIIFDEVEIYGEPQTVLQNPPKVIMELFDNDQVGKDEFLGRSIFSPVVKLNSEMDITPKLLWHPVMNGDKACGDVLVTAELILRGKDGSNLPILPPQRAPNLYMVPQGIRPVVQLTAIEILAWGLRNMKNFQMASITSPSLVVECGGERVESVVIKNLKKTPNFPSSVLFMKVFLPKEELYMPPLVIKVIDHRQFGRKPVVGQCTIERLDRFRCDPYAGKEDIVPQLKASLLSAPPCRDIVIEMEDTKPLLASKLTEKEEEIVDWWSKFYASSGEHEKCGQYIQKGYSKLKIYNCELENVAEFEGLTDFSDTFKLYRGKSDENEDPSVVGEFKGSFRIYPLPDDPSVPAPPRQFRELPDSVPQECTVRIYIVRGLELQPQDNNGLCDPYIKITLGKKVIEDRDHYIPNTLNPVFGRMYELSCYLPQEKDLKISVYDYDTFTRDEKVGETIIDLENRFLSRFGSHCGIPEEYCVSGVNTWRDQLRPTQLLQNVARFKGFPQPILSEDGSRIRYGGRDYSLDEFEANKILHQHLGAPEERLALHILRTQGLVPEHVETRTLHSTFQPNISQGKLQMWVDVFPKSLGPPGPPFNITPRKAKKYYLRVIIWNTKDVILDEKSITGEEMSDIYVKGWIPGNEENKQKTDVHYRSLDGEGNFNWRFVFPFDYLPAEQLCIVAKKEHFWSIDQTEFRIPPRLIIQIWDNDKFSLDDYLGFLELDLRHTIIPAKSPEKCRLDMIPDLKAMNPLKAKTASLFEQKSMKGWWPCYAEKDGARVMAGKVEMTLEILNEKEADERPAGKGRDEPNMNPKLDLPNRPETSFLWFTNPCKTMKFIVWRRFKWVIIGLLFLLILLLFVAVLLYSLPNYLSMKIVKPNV
Chain of hERG (KCNH2) (Q12809 whole entry): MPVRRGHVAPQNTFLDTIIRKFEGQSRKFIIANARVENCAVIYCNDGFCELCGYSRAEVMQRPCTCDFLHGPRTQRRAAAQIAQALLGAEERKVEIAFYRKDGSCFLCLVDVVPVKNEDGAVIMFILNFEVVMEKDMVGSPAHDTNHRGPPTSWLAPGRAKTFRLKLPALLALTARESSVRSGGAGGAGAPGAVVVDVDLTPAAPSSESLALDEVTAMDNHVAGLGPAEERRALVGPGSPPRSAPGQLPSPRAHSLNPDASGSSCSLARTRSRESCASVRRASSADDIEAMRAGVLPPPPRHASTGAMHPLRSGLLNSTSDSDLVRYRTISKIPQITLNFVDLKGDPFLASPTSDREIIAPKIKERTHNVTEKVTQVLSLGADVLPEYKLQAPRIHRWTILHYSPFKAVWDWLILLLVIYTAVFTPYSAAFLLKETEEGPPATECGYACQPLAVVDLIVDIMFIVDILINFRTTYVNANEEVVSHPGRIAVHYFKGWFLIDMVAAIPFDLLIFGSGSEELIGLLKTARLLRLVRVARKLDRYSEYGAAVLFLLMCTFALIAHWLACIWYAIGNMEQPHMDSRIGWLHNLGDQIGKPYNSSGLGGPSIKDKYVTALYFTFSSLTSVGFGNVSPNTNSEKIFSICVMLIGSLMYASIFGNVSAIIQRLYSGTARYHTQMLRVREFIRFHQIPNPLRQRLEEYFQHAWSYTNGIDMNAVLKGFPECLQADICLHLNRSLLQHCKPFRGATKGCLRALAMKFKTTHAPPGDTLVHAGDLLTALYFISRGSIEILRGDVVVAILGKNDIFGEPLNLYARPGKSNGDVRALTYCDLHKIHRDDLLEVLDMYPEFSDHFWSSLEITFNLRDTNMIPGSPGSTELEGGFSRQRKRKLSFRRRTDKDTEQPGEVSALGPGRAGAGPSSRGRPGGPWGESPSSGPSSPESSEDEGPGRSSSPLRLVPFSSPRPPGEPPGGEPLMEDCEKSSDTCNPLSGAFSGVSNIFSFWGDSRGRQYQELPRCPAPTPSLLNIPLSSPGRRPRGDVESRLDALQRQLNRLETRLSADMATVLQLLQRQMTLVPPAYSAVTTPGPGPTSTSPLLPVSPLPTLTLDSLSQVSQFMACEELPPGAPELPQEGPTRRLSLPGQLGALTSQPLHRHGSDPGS

For orientation: IC50 means the point on the concentration scale where inhibition reaches its midpoint. Turning to `CCc1nc(-c2ccc(OC)cc2)n(-c2cccc(C(=O)NCCCCn3cnnn3)c2)n1`, the IC50 in data set [1] and in data set [2] was over 10000 nM in each case.
As to `CCc1nc(-c2ccc(C)cc2)n(-c2cccc(C(=O)NCCCCn3nccn3)c2)n1`, the figures for the IC50 in data set [1] and in [2] were 600 nM and 300 nM, respectively.
Take `CCc1nc(-c2ccc(OC)nc2)n(-c2cccc(C(=O)NCCCCn3nccn3)c2)n1`: the IC50 in [1] is 7870 nM; in [2], 2750 nM.
The corresponding values for `CCc1nc(-c2ccc(OC)cc2)n(-c2cccc(C(=O)NCCCCCn3nccn3)c2)n1` are 2120 nM and 6610 nM.
For the compound `CCc1nc(-c2cccc(OC)c2)n(-c2cccc(C(=O)NCCCCn3nccn3)c2)n1`, the IC50 in [1] came to 7290 nM; in [2] it was 9140 nM.
In the case of `CCc1nc(-c2ccccc2OC)n(-c2cccc(C(=O)NCCCCn3nccn3)c2)n1`, the figures for the IC50 in data set [1] and in [2] were 8310 nM and 2580 nM, respectively.
In the case of `CCc1nc(-c2ccccc2)n(-c2cccc(C(=O)NCCCCn3nccn3)c2)n1`, the IC50 was determined as 6830 nM in data set [1] and 3120 nM in data set [2].
The corresponding values for `CCc1nc(-c2ccc(OC)cc2)n(-c2cccc(C(=O)NCCCCn3ccnn3)c2)n1` are over 10000 nM and over 10000 nM.
The matching figures for `CCc1nc(-c2ccc(F)cc2)n(-c2cccc(C(=O)NCCCCn3nccn3)c2)n1`: 1370 nM and 300 nM.
The corresponding values for `CCc1nc(-c2ccc(OC(F)(F)F)cc2)n(-c2cccc(C(=O)NCCCCn3nccn3)c2)n1` are 3870 nM and 5140 nM.
As to `O=c1[nH]cc(F)c(=O)[nH]1` [FLUOROURACIL], in [3], the inhibition in vivo at 15 mg/kg/day came out at 39.2%.
One may read the solubility as how much of the substance goes into solution per volume. A higher solubility goes with much dissolved substance. For the compound `CCc1nc(-c2ccc(OC)cc2)n(-c2cccc(C(=O)NCCCCn3cccn3)c2)n1`, the IC50 in [1] is 750 nM; in [2] it was 540 nM. Also, the solubility in data set [4] worked out at 393 µM (≈ 175 µg/mL); in data set [5] it was 352 µM (≈ 156 µg/mL); in [6] it was 1120 µM (≈ 499 µg/mL).
For `CCc1nc(-c2ccc(OC)cn2)n(-c2cccc(C(=O)NCCCCn3nccn3)c2)n1`, the IC50 in data set [1] is 1700 nM; in [2] it was 250 nM.
The corresponding values for `CCc1nc(-c2ccc(O)cc2)n(-c2cccc(C(=O)NCCCCn3nccn3)c2)n1` are 940 nM and 490 nM.
The corresponding values for `CCc1nc(-c2ccc([N+](=O)[O-])cc2)n(-c2cccc(C(=O)NCCCCn3nccn3)c2)n1` are 5520 nM and 880 nM.
On to `CCc1nc(-c2ncc(OC)cn2)n(-c2cccc(C(=O)NCCCCc3ccccc3)c2)n1`, for which the results for the IC50 in data set [1] and in data set [2] were 250 nM and 410 nM, respectively. For the same compound, the solubility in data set [4] was under 1.6 µM; in data set [5] it was under 1.6 µM; in data set [6], 1.7 µM (≈ 0.776 µg/mL). The inhibition in vivo at 30 mg/kg/day in data set [7] was 52.2%.
For the compound `CCc1nc(-c2ccc(OC)cc2)n(-c2cccc(C(=O)NCCCCc3ccncc3)c2)n1`, the IC50 in data set [1] and in data set [2] was over 10000 nM in each case.
On to `CCc1nc(-c2ccc(OC)cc2)n(-c2cccc(C(=O)NCCCCn3cc(Br)nn3)c2)n1`, for which the IC50 in [1] and in data set [2] was over 10000 nM in each case.
In the case of `CCc1nc(-c2ccc(OC)cc2)n(-c2cccc(C(=O)NCCCCn3ccnc3)c2)n1`, the IC50 in data set [1] and in [2] was over 10000 nM each time.
Consider `CCCc1ccc(-c2nc(CC)nn2-c2cccc(C(=O)NCCCCn3nccn3)c2)cc1`, for which the IC50 in [1] is 4070 nM; in data set [2], 1970 nM.
On to `CCc1nc(-c2ccc(OC)cc2)n(-c2cccc(C(=O)NCCCCn3ncc(Br)n3)c2)n1`, for which the half-maximal inhibitory concentration (IC50) amounted to 270 nM in data set [1] and 260 nM in [2]. Also, the solubility in data set [4] is under 1.6 µM; in data set [5] it was under 1.6 µM; in data set [6] it was 21.4 µM (≈ 11.2 µg/mL).
As for `CCc1nc(-c2ccc(OC)cc2)n(-c2cccc(C(=O)NCCCCc3cccs3)c2)n1`, the IC50 in [1] is 520 nM; in [2], 760 nM.
As usually defined, the inhibition is the drop in the measured response relative to a control, in per cent. For `COc1cc(N)c(Cl)cc1C(=O)NC1CCN(CCCOc2ccc(F)cc2)CC1OC` (stereo not drawn) [CISAPRIDE], the inhibition at 3 µM in data set [8] amounted to 107%.
On to `CCc1nc(-c2ccc(OC)cc2)n(-c2cccc(C(=O)NCCCCn3ncnn3)c2)n1`, for which the IC50 was determined as 580 nM in data set [1] and 2860 nM in data set [2]. In addition, the solubility in data set [4] is 194 µM (≈ 86.7 µg/mL); in data set [5], 186 µM (≈ 83.1 µg/mL); in data set [6], 877 µM (≈ 392 µg/mL).
Broadly, the Kd is the free concentration of one partner at which half of the binding sites on the other are occupied at equilibrium, for simple one-to-one binding. Read a high Kd as lower affinity. Consider `COc1ccccc1N1C(=O)CSC1c1cccc(C(=O)NCCCCc2ccccc2)c1` (stereo not drawn), for which the Kd in [9] was determined as 1330 nM.
`CCc1ccc(-c2nc(CC)nn2-c2cccc(C(=O)NCCCCn3nccn3)c2)cc1`: the results for the IC50 in [1] and in data set [2] were 1010 nM and 400 nM, respectively.
Regarding `CCc1nc(-c2ccc(OC)cc2)n(-c2cccc(C(=O)NCCn3nccn3)c2)n1`, the IC50 in data set [1] and in data set [2] was over 10000 nM each time.
In the case of `CCc1nc(-c2ccc(Br)cc2)n(-c2cccc(C(=O)NCCCCn3nccn3)c2)n1`, the values for the concentration for half-maximal inhibition (IC50) in data set [1] and in [2] were 11100 nM and over 10000 nM, respectively.
The matching figures for `CCc1nc(-c2ccc(OC)cc2)n(-c2cccc(C(=O)NCCCCn3cncn3)c2)n1`: over 10000 nM and over 10000 nM.
As to `CCc1nc(-c2ccc(OC)cc2)n(-c2cccc(C(=O)NCCCn3nccn3)c2)n1`, the IC50 in [1] and in data set [2] was over 10000 nM each time.
For `CCc1nc(-c2ccc(C(F)(F)F)cc2)n(-c2cccc(C(=O)NCCCCn3nccn3)c2)n1`, the IC50 was 3140 nM in data set [1] and 2700 nM in data set [2].
For the compound `CCc1nc(-c2ccc(OC)cc2)n(-c2cccc(C(=O)NCCCCn3cc(F)cn3)c2)n1`, the half-inhibitory concentration (IC50) is 10800 nM in data set [1] and 5910 nM in [2].
Turning to `CCc1nc(-c2ccc(OC)cc2)n(-c2cccc(C(=O)NCCCCn3nc(Br)c(Br)n3)c2)n1`, the figures for the half-inhibitory concentration (IC50) in [1] and in data set [2] were 9800 nM and over 10000 nM, respectively.
The matching figures for `CCc1nc(-c2ccc(OC)cc2)n(-c2cccc(C(=O)NCCCCCCn3nccn3)c2)n1`: over 10000 nM and 9590 nM.
As for `CCc1nc(-c2ccc(OC)cc2)n(-c2cccc(C(=O)NCCCCc3ccccn3)c2)n1`, the figures for the IC50 in data set [1] and in data set [2] were 3240 nM and over 10000 nM, respectively.
On to `CCc1nc(-c2ccc(OC)cc2)n(-c2cccc(C(=O)NCCCCN3CCCCC3)c2)n1`, for which the IC50 in data set [1] and in data set [2] was over 10000 nM throughout.
`CCc1nc(-c2ncc(OC)cn2)n(-c2cccc(C(=O)NCCCCn3nccn3)c2)n1`: the IC50 in [1] is 560 nM; in data set [2], 500 nM.
The corresponding values for `CCc1nc(-c2ccc(Cl)cc2)n(-c2cccc(C(=O)NCCCCn3nccn3)c2)n1` are 730 nM and 330 nM.
The matching figures for `CCc1nc(-c2ccc(OC)cc2)n(-c2cccc(C(=O)NCCCCn3cc(Br)cn3)c2)n1`: 4380 nM and 4460 nM.
